# Test results: US8124610B2, “Sodium channel inhibitors” (Icagen Inc., priority 2007, dated 2012)
# Like-named read-outs stand apart in the source and are kept apart here.
# Tests used:
# hSCN3A = target: T1, hSCN3A (Homo sapiens, UniProt Q9NY46); assay: Whole-cell patch-clamp electrophysiology (conventional or PatchXpress), HEK cells expressing hSCN3A, estimated IC-50; assay type: cell-based; conditions: read-out: SCN3A EIC-50
# T1 construct: expressed in transfected cells
# Protocol: Human Embryonic Kidney (HEK) cells were transfected with hSCN3A or hSCN9A constructs using lipofectamine reagent (Invitrogen), using standard techniques. Cells stably expressing the hSCN3A or hSCN9A constructs were identified by their resistance to G-418 (400 μg/ml). Clones were screened for expression using the whole-cell voltage-clamp technique. HEK cells stably transfected with hSCN3A or hSCN9A were maintained in DMEM medium supplemented with 10% heat-inactivated fetal bovine serum and 400 μg/ml G418 sulfate in an incubator at 37° C. with a humidified atmosphere of 10% CO2. For HTS, cells were harvested from flasks by trypsinization and replated in an appropriate multi-well plate (typically 96 or 384 wells/plate) such that confluence would be achieved within 24 hours of plating. For electrophysiological studies, cells were removed from the culture flask by brief trypsinization and replated at low density onto glass cover slips. Cells were typically used for electrophysiological experiments within 24 to 72 h after plating. Cover slips containing HEK cells expressing hSCN3A or hSCN9A were placed in a bath on the stage of an inverted microscope and perfused (approximately 1 ml/min) with extracellular solution of the following composition: 138 mM NaCl, 2 mM CaCl2, 5.4 mM KCl, 1 mM MgCl2, 10 mM glucose, and 10 mM HEPES, pH 7.4, with NaOH. […] All recordings were made at room temperature (22-24° C.) using AXOPATCH 200B amplifiers and PCLAMP software (Axon Instruments, Burlingame, Calif.) or PatchXpress 7000 hardware and associated software (Axon Instruments, Burlingame, Calif.). hSCN3A or hSCN9A currents in HEK cells were measured using the whole-cell configuration of the patch-clamp technique (Hamill et al., 1981). […] As a result, voltage errors were negligible and no correction was applied. Current records were acquired at 20 to 50 KHz and filtered at 5 to 10 KHz. HEK cells stably transfected with hSCN3A or hSCN9A were viewed under Hoffman contrast optics and placed in front of an array of flow pipes emitting either control or compound-containing extracellular solutions. All compounds were dissolved in dimethyl sulfoxide to make 10 mM stock solutions, which were then diluted into extracellular solution to attain the final concentrations desired. […] The voltage-dependence of inactivation was determined by applying a series of depolarizing prepulses (8 sec long in 10 mV increments) from a negative holding potential. The voltage was then immediately stepped to 0 mV to assess the magnitude of the sodium current. Currents elicited at 0 mV were plotted as a function of prepulse potential to allow estimation of the voltage midpoint of inactivation (V1/2). Cells were then voltage clamped at the empirically determined V1/2. Compounds were tested for their ability to inhibit hSCN3A or hSCN9A sodium channels by activating the channel with a 20 msec voltage step to 0 mV following an 8 second conditioning prepulse to the empirically determined V1-2 (Table B). Compound effect (% inhibition) was determined by difference in current amplitude before and after application of test compounds. […] In some cases electrophysiological assays were conducted with PatchXpress 7000 hardware and associated software (Molecular Devices Corp) (Table B). All assay buffers and solutions were identical to those used in conventional whole-cell voltage clamp experiments described above. hSCN3A or hSCN9A containing cells were grown as above to 50%-80% confluency and harvested by trypsinization. Trypsinized cells were washed and resuspended in extracellular buffer at a concentration of 1×10^6 cells/ml. The onboard liquid handling facility of the PatchXpress was used for dispensing cells and application of test compounds. Determination of the voltage midpoint of inactivation was as described for conventional whole-cell recordings. Cells were then voltage-clamped to the empirically determined V1/2 and current was activated by a 20 msec voltage step to 0 mV.
# hSCN9A = target: T2, hSCN9A (Homo sapiens, UniProt Q15858); assay: Whole-cell patch-clamp electrophysiology (conventional or PatchXpress), HEK cells expressing hSCN9A, estimated IC-50; assay type: cell-based; conditions: read-out: SCN9A EIC-50
# T2 construct: expressed in transfected cells
# How it was run: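 Current through each channel was evoked by a 20 ms step to 0 mV following an 8 s conditioning prepulse at the cell's own half-inactivation voltage. Recordings used HEK lines stably expressing the channel, conventional or PatchXpress patch clamp, room temperature, pH 7.4 bath; inhibition taken as pre/post-compound amplitude change.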
# [1] = Table V, estimated IC-50 from single point electrophysiology, cells clamped at V1/2
# [2] = commercial compounds (second Table VI), estimated IC-50 from single point electrophysiology
# [3] = estimated IC-50, HEK cells expressing hSCN3A, class symbols or bounds
# [4] = estimated IC-50, HEK cells expressing hSCN9A, class symbols or bounds
# T1 sequence (Q9NY46 whole entry): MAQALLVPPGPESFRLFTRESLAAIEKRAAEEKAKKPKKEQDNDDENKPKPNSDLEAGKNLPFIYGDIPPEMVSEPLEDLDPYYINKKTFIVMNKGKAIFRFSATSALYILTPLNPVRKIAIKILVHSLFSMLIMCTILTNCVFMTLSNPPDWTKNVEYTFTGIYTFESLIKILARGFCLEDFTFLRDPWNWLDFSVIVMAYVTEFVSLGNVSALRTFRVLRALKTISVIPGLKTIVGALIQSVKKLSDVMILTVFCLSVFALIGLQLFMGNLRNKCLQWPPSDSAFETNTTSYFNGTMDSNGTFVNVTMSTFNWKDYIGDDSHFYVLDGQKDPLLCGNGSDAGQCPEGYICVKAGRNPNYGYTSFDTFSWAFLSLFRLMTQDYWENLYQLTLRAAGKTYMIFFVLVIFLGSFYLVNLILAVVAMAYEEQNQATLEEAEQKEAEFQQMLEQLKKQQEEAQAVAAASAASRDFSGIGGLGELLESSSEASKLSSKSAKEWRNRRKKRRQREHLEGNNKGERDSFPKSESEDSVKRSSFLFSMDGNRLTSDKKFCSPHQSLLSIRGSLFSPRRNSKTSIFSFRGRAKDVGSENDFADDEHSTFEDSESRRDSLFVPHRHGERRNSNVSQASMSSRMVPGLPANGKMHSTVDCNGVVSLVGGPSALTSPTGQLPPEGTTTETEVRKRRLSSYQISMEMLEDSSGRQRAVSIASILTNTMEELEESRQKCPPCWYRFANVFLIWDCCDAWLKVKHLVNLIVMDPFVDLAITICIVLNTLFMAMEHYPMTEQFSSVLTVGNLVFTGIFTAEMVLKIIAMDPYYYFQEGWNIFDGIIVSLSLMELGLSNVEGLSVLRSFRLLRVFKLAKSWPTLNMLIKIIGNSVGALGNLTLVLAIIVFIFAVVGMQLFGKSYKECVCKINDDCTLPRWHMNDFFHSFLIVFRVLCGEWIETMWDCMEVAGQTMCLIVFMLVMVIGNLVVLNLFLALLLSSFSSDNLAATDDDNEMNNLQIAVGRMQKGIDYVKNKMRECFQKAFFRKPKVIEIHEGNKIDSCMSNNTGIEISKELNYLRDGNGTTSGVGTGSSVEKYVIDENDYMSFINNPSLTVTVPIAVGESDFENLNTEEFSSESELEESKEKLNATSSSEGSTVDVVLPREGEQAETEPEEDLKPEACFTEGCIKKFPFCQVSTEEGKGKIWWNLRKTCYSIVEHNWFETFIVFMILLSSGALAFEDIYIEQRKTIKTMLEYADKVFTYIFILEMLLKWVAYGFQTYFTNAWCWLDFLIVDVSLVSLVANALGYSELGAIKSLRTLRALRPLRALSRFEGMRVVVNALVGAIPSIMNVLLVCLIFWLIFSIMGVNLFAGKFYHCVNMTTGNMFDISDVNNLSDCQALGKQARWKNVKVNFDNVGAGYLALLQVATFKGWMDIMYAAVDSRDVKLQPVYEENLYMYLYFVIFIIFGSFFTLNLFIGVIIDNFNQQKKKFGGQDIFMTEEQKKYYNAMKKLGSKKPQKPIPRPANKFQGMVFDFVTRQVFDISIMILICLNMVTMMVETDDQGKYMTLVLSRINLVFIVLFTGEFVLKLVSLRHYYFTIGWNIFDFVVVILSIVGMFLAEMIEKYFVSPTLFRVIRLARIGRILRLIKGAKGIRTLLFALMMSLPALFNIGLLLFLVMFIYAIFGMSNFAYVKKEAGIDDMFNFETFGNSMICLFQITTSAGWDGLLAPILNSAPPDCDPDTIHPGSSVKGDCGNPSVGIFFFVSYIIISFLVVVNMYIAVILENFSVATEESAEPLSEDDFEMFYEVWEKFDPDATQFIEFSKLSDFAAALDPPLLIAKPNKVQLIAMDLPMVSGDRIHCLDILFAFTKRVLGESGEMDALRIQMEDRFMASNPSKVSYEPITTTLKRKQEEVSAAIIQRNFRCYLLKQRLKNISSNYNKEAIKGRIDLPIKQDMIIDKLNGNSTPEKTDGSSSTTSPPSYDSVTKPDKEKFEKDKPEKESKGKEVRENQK
# T2 sequence (Q15858 whole entry): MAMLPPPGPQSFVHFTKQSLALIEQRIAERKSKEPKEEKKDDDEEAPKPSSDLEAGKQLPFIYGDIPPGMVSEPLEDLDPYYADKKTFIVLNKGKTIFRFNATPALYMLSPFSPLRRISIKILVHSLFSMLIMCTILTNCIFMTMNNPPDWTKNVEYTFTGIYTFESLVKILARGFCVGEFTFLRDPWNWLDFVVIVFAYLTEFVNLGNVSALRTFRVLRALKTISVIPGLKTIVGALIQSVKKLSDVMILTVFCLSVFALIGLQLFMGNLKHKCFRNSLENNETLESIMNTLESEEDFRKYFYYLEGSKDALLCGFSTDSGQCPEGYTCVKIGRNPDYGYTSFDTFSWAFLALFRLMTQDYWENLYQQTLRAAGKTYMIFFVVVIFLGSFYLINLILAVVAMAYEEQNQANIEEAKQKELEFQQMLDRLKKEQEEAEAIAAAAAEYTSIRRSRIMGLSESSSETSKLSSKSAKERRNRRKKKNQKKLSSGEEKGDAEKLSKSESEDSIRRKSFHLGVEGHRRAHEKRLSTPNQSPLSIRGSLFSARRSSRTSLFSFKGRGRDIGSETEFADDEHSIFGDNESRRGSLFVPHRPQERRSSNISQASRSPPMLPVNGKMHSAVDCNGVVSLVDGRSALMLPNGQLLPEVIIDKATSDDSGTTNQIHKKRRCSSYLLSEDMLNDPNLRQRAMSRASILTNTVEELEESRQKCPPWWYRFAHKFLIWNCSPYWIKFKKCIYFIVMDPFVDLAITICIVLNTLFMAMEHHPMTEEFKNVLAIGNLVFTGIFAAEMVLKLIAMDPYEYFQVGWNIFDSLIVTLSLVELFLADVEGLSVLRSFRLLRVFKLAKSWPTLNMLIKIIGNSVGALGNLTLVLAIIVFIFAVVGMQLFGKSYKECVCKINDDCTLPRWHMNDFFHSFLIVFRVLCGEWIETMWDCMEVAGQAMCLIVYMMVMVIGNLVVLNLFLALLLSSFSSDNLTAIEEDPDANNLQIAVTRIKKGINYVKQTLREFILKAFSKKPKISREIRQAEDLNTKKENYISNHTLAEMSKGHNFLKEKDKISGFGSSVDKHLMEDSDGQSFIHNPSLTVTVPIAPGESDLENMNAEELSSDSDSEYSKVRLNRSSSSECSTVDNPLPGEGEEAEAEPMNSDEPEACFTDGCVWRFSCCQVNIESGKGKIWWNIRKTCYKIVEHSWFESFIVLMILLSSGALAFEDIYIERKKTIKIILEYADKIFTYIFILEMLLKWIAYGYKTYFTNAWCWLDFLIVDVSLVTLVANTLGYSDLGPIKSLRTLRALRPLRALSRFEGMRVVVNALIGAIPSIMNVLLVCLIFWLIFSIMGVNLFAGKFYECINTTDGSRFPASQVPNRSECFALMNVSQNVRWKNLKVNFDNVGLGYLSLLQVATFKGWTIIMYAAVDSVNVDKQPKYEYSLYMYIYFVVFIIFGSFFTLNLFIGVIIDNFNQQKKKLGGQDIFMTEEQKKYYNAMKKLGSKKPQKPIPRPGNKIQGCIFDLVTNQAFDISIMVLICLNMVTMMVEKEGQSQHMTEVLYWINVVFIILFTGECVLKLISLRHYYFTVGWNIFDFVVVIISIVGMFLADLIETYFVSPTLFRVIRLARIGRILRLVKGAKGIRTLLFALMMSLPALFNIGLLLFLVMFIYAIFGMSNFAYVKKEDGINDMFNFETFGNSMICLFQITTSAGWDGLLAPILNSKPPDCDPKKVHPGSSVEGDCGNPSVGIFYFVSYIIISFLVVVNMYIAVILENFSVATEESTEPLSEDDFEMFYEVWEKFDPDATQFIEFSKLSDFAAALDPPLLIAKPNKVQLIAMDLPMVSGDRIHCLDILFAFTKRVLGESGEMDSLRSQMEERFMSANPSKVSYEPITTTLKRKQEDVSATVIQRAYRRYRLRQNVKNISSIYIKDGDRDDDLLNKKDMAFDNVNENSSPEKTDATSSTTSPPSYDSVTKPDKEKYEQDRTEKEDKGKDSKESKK
IC50 (hSCN3A; [3]),IC50 (hSCN9A; [4]),SMILES,also measured
–,–,"Cc1cc(Nc2ccc(S(=O)(=O)Nc3nccs3)cc2F)n(-c2ccccc2)n1 [Compound 35, 3-fluoro-4-(3-methyl-1-phenyl-1H-pyrazol-5-ylamino)-N-(thiazol-2-yl)benzenesulfonamide]",IC50 (hSCN3A; [1]): < 2000 nM; IC50 (hSCN9A; [1]): < 2000 nM
–,–,"O=S(=O)(Nc1nccs1)c1ccc(Nc2cc(C3CC3)nn2-c2ccccc2)c(F)c1 [Compound 36, 4-(3-cyclopropyl-1-phenyl-1H-pyrazol-5-ylamino)-3-fluoro-N-(thiazol-2-yl)benzenesulfonamide]",IC50 (hSCN3A; [1]): < 2000 nM; IC50 (hSCN9A; [1]): < 2000 nM
–,–,"O=S(=O)(Nc1nccs1)c1ccc(Nc2ccccc2-c2ccccc2)cc1F [Compound 37, 4-(Biphenyl-2-ylamino)-2-fluoro-N-thiazol-2-yl-benzenesulfonamide]",IC50 (hSCN3A; [1]): < 2000 nM; IC50 (hSCN9A; [1]): < 2000 nM
–,–,"CCOC(=O)C1(C)C=C(Nc2ccc(S(=O)(=O)Nc3nccs3)cc2)C(=O)N1c1ccccc1 (centres unmarked) [Compound 38, ethyl 2-methyl-5-oxo-1-phenyl-4-(4-(N-thiazol-2-ylsulfamoyl)phenylamino)-2,5-dihydro-1H-pyrrole-2-carboxylate, reference compound]",IC50 (hSCN3A; [2]): > 1000 nM; IC50 (hSCN9A; [2]): > 3000 nM
–,–,"Cc1nnc(Nc2ccc(S(=O)(=O)Nc3nccs3)cc2)c2ccccc12 [Compound 39, 4-(4-methylphthalazin-1-ylamino)-N-(thiazol-2-yl)benzenesulfonamide, reference compound]",IC50 (hSCN3A; [2]): > 1000 nM; IC50 (hSCN9A; [2]): > 3000 nM
–,–,"O=S(=O)(Nc1nccs1)c1ccc(Nc2nnc(-c3ccc(Cl)cc3)c3ccccc23)cc1 [Compound 40, 4-(4-(4-chlorophenyl)phthalazin-1-ylamino)-N-(thiazol-2-yl)benzenesulfonamide, reference compound]",IC50 (hSCN3A; [2]): 1320 nM; IC50 (hSCN9A; [2]): 3490 nM
–,–,"Cc1ccc(-c2nnc(Nc3ccc(S(=O)(=O)Nc4nccs4)cc3)c3ccccc23)cc1 [Compound 41, N-(thiazol-2-yl)-4-(4-p-tolylphthalazin-1-ylamino)benzenesulfonamide, reference compound]",IC50 (hSCN3A; [2]): 1610 nM; IC50 (hSCN9A; [2]): > 3000 nM
–,–,"O=S(=O)(Nc1nccs1)c1ccc(Nc2nnc(-c3ccccc3)c3ccccc23)cc1 [Compound 42, 4-(4-phenylphthalazin-1-ylamino)-N-(thiazol-2-yl)benzenesulfonamide, reference compound]",IC50 (hSCN3A; [2]): 2030 nM; IC50 (hSCN9A; [2]): > 3000 nM
> 1000 nM,2000 to 10000 nM,"O=S(=O)(Nc1nccs1)c1ccc(Nc2nc(-c3ccccc3)cs2)cc1 [Compound 43, 4-(4-phenylthiazol-2-ylamino)-N-(thiazol-2-yl)benzenesulfonamide]",–
> 1000 nM,> 3000 nM,"O=S(=O)(Nc1nccs1)c1ccc(Nc2ncccn2)cc1 [Compound 44, 4-(pyrimidin-2-ylamino)-N-(thiazol-2-yl)benzenesulfonamide]",–
< 2000 nM,> 10000 nM,"O=S(=O)(Nc1nccs1)c1ccc(Nc2nccc(OCc3ccccc3)n2)cc1 [Compound 45, 4-(4-(benzyloxy)pyrimidin-2-ylamino)-N-(thiazol-2-yl)benzenesulfonamide]",–
< 2000 nM,> 10000 nM,"O=S(=O)(Nc1nccs1)c1ccc(Nc2nccc(OCC(c3ccccc3)c3ccccc3)n2)cc1 [Compound 46, 4-(4-(2,2-diphenylethoxy)pyrimidin-2-ylamino)-N-(thiazol-2-yl)benzenesulfonamide]",–
< 2000 nM,> 3000 nM,"O=S(=O)(Nc1nccs1)c1ccc(Nc2nc(-c3ccccc3)c(-c3ccccc3)s2)cc1 [Compound 47, 4-(4,5-diphenylthiazol-2-ylamino)-N-(thiazol-2-yl)benzenesulfonamide]",–
< 2000 nM,> 1000 nM,"O=S(=O)(Nc1nccs1)c1ccc(Nc2nc(COc3ccccc3)cs2)cc1 [Compound 48, 4-(4-(phenoxymethyl)thiazol-2-ylamino)-N-(thiazol-2-yl)benzenesulfonamide]",–
< 2000 nM,< 2000 nM,"O=S(=O)(Nc1nccs1)c1ccc(Nc2nc(CC(c3ccccc3)c3ccccc3)cs2)cc1 [Compound 49, 4-(4-(2,2-diphenylethyl)thiazol-2-ylamino)-N-(thiazol-2-yl)benzenesulfonamide]",–
< 2000 nM,2000 to 10000 nM,"O=S(=O)(Nc1nccs1)c1ccc(Nc2nc(CCCOc3ccccc3)cs2)cc1 [Compound 50, 4-(4-(3-phenoxypropyl)thiazol-2-ylamino)-N-(thiazol-2-yl)benzenesulfonamide]",–
< 2000 nM,2000 to 10000 nM,"O=S(=O)(Nc1nccs1)c1ccc(Nc2nc(CCC3CCCC3)cs2)cc1 [Compound 51, 4-(4-(2-cyclopentylethyl)thiazol-2-ylamino)-N-(thiazol-2-yl)benzenesulfonamide]",–
< 2000 nM,< 2000 nM,"O=S(=O)(Nc1nccs1)c1ccc(Nc2nc(COc3ccc(Cl)cc3)cs2)cc1 [Compound 52, 4-(4-((4-chlorophenoxy)methyl)thiazol-2-ylamino)-N-(thiazol-2-yl)benzenesulfonamide]",–
< 2000 nM,> 1000 nM,"O=S(=O)(Nc1nccs1)c1ccc(Nc2nc(C3CC3c3ccccc3)cs2)cc1 (centres unmarked) [Compound 53, 4-(4-(2-phenylcyclopropyl)thiazol-2-ylamino)-N-(thiazol-2-yl)benzenesulfonamide]",–
2000 to 10000 nM,> 1000 nM,"O=S(=O)(Nc1nccs1)c1ccc(Nc2nccc(OCc3ccccc3F)n2)cc1 [Compound 54, 4-(4-(2-fluorobenzyloxy)pyrimidin-2-ylamino)-N-(thiazol-2-yl)benzenesulfonamide]",–
< 2000 nM,> 1000 nM,"O=S(=O)(Nc1nccs1)c1ccc(Nc2nccc(OCc3ccc(C(F)(F)F)cc3)n2)cc1 [Compound 55, N-(thiazol-2-yl)-4-(4-(4-(trifluoromethyl)benzyloxy)pyrimidin-2-ylamino)benzenesulfonamide]",–
< 2000 nM,< 2000 nM,"O=S(=O)(Nc1nccs1)c1ccc(Nc2nc(CNCC(c3ccccc3)c3ccccc3)cs2)cc1 [Compound 56, 4-(4-((2,2-diphenylethylamino)methyl)thiazol-2-ylamino)-N-(thiazol-2-yl)benzenesulfonamide]",–
2000 to 10000 nM,> 1000 nM,"O=S(=O)(Nc1nccs1)c1ccc(Nc2nc(CNCCOc3ccccc3)cs2)cc1 [Compound 57, 4-(4-((2-phenoxyethylamino)methyl)thiazol-2-ylamino)-N-(thiazol-2-yl)benzenesulfonamide]",–
> 1000 nM,2000 to 10000 nM,"O=S(=O)(Nc1nccs1)c1ccc(Nc2nc(CN3CCC[C@H]3CN3CCCC3)cs2)cc1 [Compound 58, (S)-4-(4-((2-(pyrrolidin-1-ylmethyl)pyrrolidin-1-yl)methyl)thiazol-2-ylamino)-N-(thiazol-2-yl)benzenesulfonamide]",–
< 2000 nM,2000 to 10000 nM,"O=S(=O)(Nc1nccs1)c1ccc(Nc2nc(CNC(c3ccccc3)c3ccccc3)cs2)cc1 [Compound 60, 4-(4-((benzhydrylamino)methyl)thiazol-2-ylamino)-N-(thiazol-2-yl)benzenesulfonamide]",–
